ChEMBL document CHEMBL3351426, “Development of new estradiol-cationic lipid hybrids: ten-carbon twin chain cationic lipid is a more suitable partner for estradiol to elicit better anticancer activity” (Eur J Med Chem, 2014)
Active and inactive are the calls of the source. No cut-off for these calls is given here.

Assays:
MCF7 [1] = test: Antiproliferative activity human ER-positive MCF7 cells after 2 days by MTT assay; format: functional, cell-based; settings: MCF7, 48 h
MDA-MB-231 [2] = test: Antiproliferative activity human ER-negative MDA-MB-231 cells after 2 days by MTT assay; format: functional, cell-based; settings: MDA-MB-231, 48 h
[3] = Antiproliferative activity mouse B16F10 cells after 2 days by MTT assay; format: functional, cell-based; settings: B16-F10, 48 h
[4] = Antiproliferative activity human MIAPaCa2 cells after 2 days by MTT assay; format: functional, cell-based; settings: MIA PaCa-2, 48 h
CHO [5] = test: Antiproliferative activity against CHO cells after 2 days by MTT assay; format: cell-based; settings: Cricetulus griseus, 48 h
[6] = Antiproliferative activity mouse NIH/3T3 cells after 2 days by MTT assay; format: cell-based; settings: NIH3T3, 48 h
B16-F10 [7] = test: Antitumor activity against mouse B16F10 cells inoculated in C57BL6J mouse assessed as tumor regression at 9.15 mg/kg, ip for 9 days; format: functional, organism-based; parameters: dose 9.15 mg/kg
B16-F10 [8] = test: Induction of apoptosis in mouse B16F10 cells assessed as necrotic cells at 5 uM after 24 hrs by FITC-annexin V/PI staining based flow cytometry (RVB = 5.12%); format: functional
B16-F10 [9] = test: Induction of apoptosis in mouse B16F10 cells assessed as late apoptotic cells at 5 uM after 24 hrs by FITC-annexin V/PI staining based flow cytometry (RVB = 4.94%); format: functional
B16-F10 [10] = test: Induction of apoptosis in mouse B16F10 cells assessed as early apoptotic cells at 5 uM after 24 hrs by FITC-annexin V/PI staining based flow cytometry (RVB = 0.36%); format: functional
B16-F10 [11] = test: Induction of apoptosis in mouse B16F10 cells assessed as viable cells at 5 uM after 24 hrs by FITC-annexin V/PI staining based flow cytometry (RVB = 89.58%); format: functional; settings: B16-F10, 24 h, read-out: Activity
MDA-MB-231 [12] = test: Induction of apoptosis in human ER-negative MDA-MB-231 cells assessed as necrotic cells at 5 uM after 24 hrs by FITC-annexin V/PI staining based flow cytometry (RVB = 2.21%); format: functional
MDA-MB-231 [13] = test: Induction of apoptosis in human ER-negative MDA-MB-231 cells assessed as late apoptotic cells at 5 uM after 24 hrs by FITC-annexin V/PI staining based flow cytometry (RVB = 0.99%); format: functional
MDA-MB-231 [14] = test: Induction of apoptosis in human ER-negative MDA-MB-231 cells assessed as early apoptotic cells at 5 uM after 24 hrs by FITC-annexin V/PI staining based flow cytometry (RVB = 1.15%); format: functional
MDA-MB-231 [15] = test: Induction of apoptosis in human ER-negative MDA-MB-231 cells assessed as viable cells at 5 uM after 24 hrs by FITC-annexin V/PI staining based flow cytometry (RVB =95.66%); format: functional; settings: MDA-MB-231, 24 h, read-out: Activity
MCF7 [16] = test: Induction of apoptosis in human ER-positive MCF7 cells assessed as necrotic cells at 5 uM after 24 hrs by FITC-annexin V/PI staining based flow cytometry (RVB = 3.24%); format: functional
MCF7 [17] = test: Induction of apoptosis in human ER-positive MCF7 cells assessed as late apoptotic cells at 5 uM after 24 hrs by FITC-annexin V/PI staining based flow cytometry (RVB = 3.68%); format: functional
MCF7 [18] = test: Induction of apoptosis in human ER-positive MCF7 cells assessed as early apoptotic cells at 5 uM after 24 hrs by FITC-annexin V/PI staining based flow cytometry (RVB = 0.86%); format: functional
MCF7 [19] = test: Induction of apoptosis in human ER-positive MCF7 cells assessed as viable cells at 5 uM after 24 hrs by FITC-annexin V/PI staining based flow cytometry (RVB = 92.22%); format: functional; settings: MCF7, 24 h, read-out: Activity
RAW264.7 [20] = test: Induction of apoptosis in mouse RAW264.7 cells assessed as necrotic cells at 5 uM after 24 hrs by FITC-annexin V/PI staining based flow cytometry (RVB = 0.29%); format: cell-based; settings: raw264.7, 24 h
RAW264.7 [21] = test: Induction of apoptosis in mouse RAW264.7 cells assessed as late apoptotic cells at 5 uM after 24 hrs by FITC-annexin V/PI staining based flow cytometry (RVB = 0.51%); format: cell-based; settings: raw264.7, 24 h
RAW264.7 [22] = test: Induction of apoptosis in mouse RAW264.7 cells assessed as early apoptotic cells at 5 uM after 24 hrs by FITC-annexin V/PI staining based flow cytometry (RVB = 0.69%); format: cell-based; settings: raw264.7, 24 h
[23] = Induction of apoptosis in mouse RAW264.7 cells assessed as viable cells at 5 uM after 24 hrs by FITC-annexin V/PI staining based flow cytometry (RVB = 98.51%); format: cell-based; settings: read-out: Activity
CHO [24] = test: Induction of apoptosis in CHO cells assessed as necrotic cells at 5 uM after 24 hrs by FITC-annexin V/PI staining based flow cytometry (RVB = 0.79%); format: cell-based, Cricetulus griseus; settings: chinese hamster
CHO [25] = test: Induction of apoptosis in CHO cells assessed as late apoptotic cells at 5 uM after 24 hrs by FITC-annexin V/PI staining based flow cytometry (RVB = 0.00%); format: cell-based, Cricetulus griseus; settings: chinese hamster
CHO [26] = test: Induction of apoptosis in CHO cells assessed as early apoptotic cells at 5 uM after 24 hrs by FITC-annexin V/PI staining based flow cytometry (RVB = 0.00%); format: cell-based, Cricetulus griseus; settings: chinese hamster
[27] = Induction of apoptosis in CHO cells assessed as viable cells at 5 uM after 24 hrs by FITC-annexin V/PI staining based flow cytometry (RVB = 99.21%); format: cell-based, Cricetulus griseus; settings: chinese hamster, read-out: Activity
MCF7 [28] = test: Cell cycle arrest in human ER-positive MCF7 cells assessed as accumulation at sub-G0 phase at 5 to 10 uM after 24 hrs by PI staining based flow cytometry; format: functional
[29] = Cell cycle arrest in mouse B16F10 cells assessed as accumulation at sub-G0 phase at 5 to 10 uM after 24 hrs by PI staining based flow cytometry; format: functional; settings: B16-F10
MCF7 [30] = test: Cell cycle arrest in human ER-positive MCF7 cells assessed as reduction in accumulation at G0-G1 phase 5 to 10 uM after 24 hrs by PI staining based flow cytometry; format: functional
[31] = Cell cycle arrest in mouse B16F10 cells assessed as reduction in accumulation at G0-G1 phase 5 to 10 uM after 24 hrs by PI staining based flow cytometry; format: functional; settings: B16-F10
B16-F10 [32] = test: Antitumor activity against mouse B16F10 cells inoculated in C57BL6J mouse assessed as tumor regression at 10 mg/kg, ip for 9 days; format: functional, organism-based; parameters: dose 10 mg/kg
B16-F10 [33] = test: Antitumor activity against mouse B16F10 cells expressing ER inoculated in C57BL6J mouse assessed as tumor regression at 10 mg/kg, ip for 9 days; format: functional, organism-based; parameters: dose 10 mg/kg
B16-F10 [34] = test: Antitumor activity against mouse B16F10 cells expressing ER inoculated in C57BL6J mouse assessed as tumor regression at 10 mg/kg, ip for 9 days in presence of estradiol; format: functional, organism-based; parameters: dose 10 mg/kg

Compound CC/C(=C(\c1ccccc1)c1ccc(OCCN(C)C)cc1)c1ccccc1 [TAMOXIFEN] has an IC50 (MCF7 [1]) of 4.67 µM, an IC50 (MDA-MB-231 [2]) of 39 µM and an IC50 [3] of 64.9 µM. For the same compound, the IC50 [4] was 33.1 µM, the IC50 (CHO [5]) was greater than 100 µM and the IC50 [6] was greater than 100 µM.
Compound CCCCCCCCCCCCCC[N+](C)(CCCCCCCCCCCCCC)CCC[C@]1(O)CC[C@H]2[C@@H]3CCc4cc(O)ccc4[C@H]3CC[C@@]21C has an IC50 (MCF7 [1]) of 17.4 µM, an IC50 (MDA-MB-231 [2]) of 38.7 µM and an IC50 [3] of 32.3 µM. It also gave an IC50 [4] of 42.5 µM, an IC50 (CHO [5]) greater than 100 µM and an IC50 [6] of 80.3 µM.
C[C@]12CC[C@@H]3c4ccc(O)cc4CC[C@H]3[C@@H]1CC[C@@H]2O [ESTRADIOL] gave an IC50 (MCF7 [1]) of 27.4 µM, an IC50 (MDA-MB-231 [2]) of 33.5 µM and an IC50 [3] of 39.8 µM. It also gave an IC50 [4] of 42.9 µM, an IC50 (CHO [5]) greater than 100 µM and an IC50 [6] greater than 100 µM.
In the case of CCCCCCCCCCCC[N+](C)(CCCCCCCCCCCC)CCC[C@]1(O)CC[C@H]2[C@@H]3CCc4cc(O)ccc4[C@H]3CC[C@@]21C, the IC50 (MCF7 [1]) is reported as 6.23 µM, the IC50 (MDA-MB-231 [2]) is reported as 6.02 µM and the IC50 [3] is reported as 5.79 µM. The IC50 [4] was 7.36 µM, the IC50 (CHO [5]) was 90.8 µM and the IC50 [6] was 85.4 µM.
In the case of CCCCCC[N+](C)(CCCCCC)CCC[C@]1(O)CC[C@H]2[C@@H]3CCc4cc(O)ccc4[C@H]3CC[C@@]21C, the IC50 (MCF7 [1]) is reported as 7.85 µM, the IC50 (MDA-MB-231 [2]) is reported as 6.78 µM and the IC50 [3] is reported as 6.56 µM. For the same compound, the IC50 [4] was 8.51 µM, the IC50 (CHO [5]) was 60.4 µM and the IC50 [6] was 45.8 µM.
CCCCCCCC[N+](C)(CCCCCCCC)CCC[C@]1(O)CC[C@H]2[C@@H]3CCc4cc(O)ccc4[C@H]3CC[C@@]21C showed an IC50 (MCF7 [1]) of 5.34 µM, an IC50 (MDA-MB-231 [2]) of 5.62 µM and an IC50 [3] of 6.48 µM. The IC50 [4] was 6.83 µM, the IC50 (CHO [5]) was 45.3 µM and the IC50 [6] was 51 µM. For the same compound, the inhibition (B16-F10 [7]) was “Active”.
CCCCCCCCCC[N+](C)(CCCCCCCCCC)CCC[C@]1(O)CC[C@H]2[C@@H]3CCc4cc(O)ccc4[C@H]3CC[C@@]21C.[Cl-] gave an IC50 (MCF7 [1]) of 1.36 µM, an IC50 (MDA-MB-231 [2]) of 1.14 µM and an IC50 [3] of 0.5 µM. It also gave an IC50 [4] of 0.46 µM, an IC50 (CHO [5]) of 81.7 µM and an IC50 [6] of 47.7 µM. For the same compound, the Activity (B16-F10 [8]) was 2.87%, the Activity (B16-F10 [9]) was 67.86% and the Activity (B16-F10 [10]) was 2.53%. It also gave a viability at 5 µM (B16-F10 [11]) of 26.7%, an Activity (MDA-MB-231 [12]) of 3.39% and an Activity (MDA-MB-231 [13]) of 50.63%. For the same compound, the Activity (MDA-MB-231 [14]) was 21.65%, the viability at 5 µM (MDA-MB-231 [15]) was 24.3% and the Activity (MCF7 [16]) was 1.4%. The Activity (MCF7 [17]) was 45.94%, the Activity (MCF7 [18]) was 1.62% and the viability at 5 µM (MCF7 [19]) was 51%. The Activity (RAW264.7 [20]) was 0.1%, the Activity (RAW264.7 [21]) was 0.27% and the Activity (RAW264.7 [22]) was 0.55%. The viability at 24 h, 5 µM [23] was 99.1%, the Activity (CHO [24]) was 0.86% and the Activity (CHO [25]) was 0.23%. The Activity (CHO [26]) was 0.56%, the viability at 24 h, 5 µM [27] was 98.3% and the Activity (MCF7 [28]) was “Active”. For the same compound, the Activity [29] was “Active”, the Activity (MCF7 [30]) was “Active” and the Activity [31] was “Active”. For the same compound, the inhibition (B16-F10 [32]) was “Active”, the inhibition (B16-F10 [33]) was “Active” and the inhibition (B16-F10 [34]) was “inactive”.
